Laboratory results from PubChem BioAssay AID330 (DTP/NCI, 2004).
Several values for one entry are separate records, joined by “and”; a condition that tells them apart may be missing. Equal values may be shown once. Toxic doses and inconclusive results are not listed. Peptide text beside a SMILES is read from it. * marks the point of attachment. For = O=C*

System: P388 leukemia ip, CD2F1 mice, survival T/C
Experiment: NCI In Vivo Anticancer Drug Screen. Data for tumor model P388 Leukemia (intraperitoneal) in CD2F1 (CDF1) mice
Details: endpoint: median survival time, higher = longer survival
Outline: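 Mice carrying the transplanted tumor received test compound or vehicle. Survival was recorded in each group, and the value is the treated-group measurement divided by that of the vehicle-treated control group.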

[1] = dose: 50.0 mg/kg/injection, schedule: Q01DX009 (ip), vehicle: saline
[2] = dose: 50.0 mg/kg/injection, schedule: Q01DX005 (ip), vehicle: saline with Tween-80
[3] = dose: 100.0 mg/kg/injection, schedule: Q01DX005 (ip), vehicle: saline with Tween-80
[4] = dose: 100.0 mg/kg/injection, schedule: Q01DX009 (ip), vehicle: saline with Tween-80
[5] = dose: 200.0 mg/kg/injection, schedule: Q01DX009 (ip), vehicle: saline with Tween-80
[6] = dose: 50.0 mg/kg/injection, schedule: Q01DX005 (ip), vehicle: Klucel (hydroxypropylcellulose) (HPC)
[7] = dose: 100.0 mg/kg/injection, schedule: Q01DX005 (ip), vehicle: Klucel (hydroxypropylcellulose) (HPC)
[8] = dose: 200.0 mg/kg/injection, schedule: Q01DX005 (ip), vehicle: Klucel (hydroxypropylcellulose) (HPC)
[9] = dose: 60.0 mg/kg/injection, schedule: Q01DX005 (ip), vehicle: saline with Tween-80
[10] = dose: 120.0 mg/kg/injection, schedule: Q01DX005 (ip), vehicle: saline with Tween-80
[11] = dose: 240.0 mg/kg/injection, schedule: Q01DX005 (ip), vehicle: saline with Tween-80
[12] = dose: 25.0 mg/kg/injection, schedule: Q01DX005 (ip), vehicle: Klucel (hydroxypropylcellulose) (HPC)
[13] = dose: 50.0 mg/kg/injection, schedule: Q01DX009 (ip), vehicle: saline with Tween-80
[14] = dose: 5.0 mg/kg/injection, schedule: Q01DX009 (ip), vehicle: saline
[15] = dose: 50.0 mg/kg/injection, schedule: Q01DX009 (ip), vehicle: Klucel (hydroxypropylcellulose) (HPC)
[16] = dose: 100.0 mg/kg/injection, schedule: Q01DX009 (ip), vehicle: Klucel (hydroxypropylcellulose) (HPC)
[17] = dose: 200.0 mg/kg/injection, schedule: Q01DX009 (ip), vehicle: Klucel (hydroxypropylcellulose) (HPC)

Structure (SMILES): N=C=S.O=NO.O=N[O-].[Co+3].[NH-]CC[NH-].[NH-]CC[NH-]
- T/C (dose: 13.0 mg/kg/injection, schedule: Q01DX009 (ip), vehicle: saline): 105 % of control
- T/C (dose: 25.0 mg/kg/injection, schedule: Q01DX009 (ip), vehicle: saline): 113 % of control
- T/C [1]: 103 % of control

Structure (SMILES): CC(C)=CCCC1=C2[C@H](O)C=C(C)C[C@@H]2OC1=O
- T/C [2]: 100 % of control
- T/C [3]: 99 % of control
- T/C (dose: 200.0 mg/kg/injection, schedule: Q01DX005 (ip), vehicle: saline with Tween-80): 101 % of control

Structure (SMILES): COc1ccc(Cc2nncc3ccccc23)cc1OC
- T/C (dose: 6.25 mg/kg/injection, schedule: Q01DX009 (ip), vehicle: saline with Tween-80): 107 % of control
- T/C (dose: 12.5 mg/kg/injection, schedule: Q01DX009 (ip), vehicle: saline with Tween-80): 107 % of control
- T/C (dose: 25.0 mg/kg/injection, schedule: Q01DX009 (ip), vehicle: saline with Tween-80): 105 % of control
- T/C [4]: 95 % of control
- T/C [5]: 104 % of control

Structure (SMILES): CSCCC(NC=O)C(=O)NC(C(=O)O)C(C)C (stereo not drawn) (For-Met-Val-OH; configuration not given here)
- T/C [6]: 101 % of control
- T/C [7]: 97 % of control
- T/C [8]: 101 % of control

Structure (SMILES): COC(=O)c1cc(-c2ccc(C)cc2)c2c(=O)n(-c3ccccc3)[nH]c2n1
- T/C [9]: 100 % of control
- T/C [10]: 100 % of control
- T/C [11]: 97 % of control

Structure (SMILES): C/C(=N\NC(=S)NNC(=S)N(C)c1ccccc1)c1ccccc1
- T/C [12]: 98 % of control
- T/C [6]: 93 % of control
- T/C [7]: 94 % of control
- T/C [8]: 91 % of control

Structure (SMILES): Cn1c(=O)c2c(nc(N3CCN(CCO)CC3)n2CC(O)CCl)n(C)c1=O (centres undefined)
- T/C (dose: 50.0 mg/kg/injection, schedule: Q01DX005 (ip), vehicle: water): 100 % of control
- T/C (dose: 100.0 mg/kg/injection, schedule: Q01DX005 (ip), vehicle: water): 99 % of control
- T/C (dose: 200.0 mg/kg/injection, schedule: Q01DX005 (ip), vehicle: water): 99 % of control

Structure (SMILES): Cn1cc(NC(=O)c2cc(NC(=O)c3cc(NC=O)cn3C)cn2C)cc1C(=O)NCCC(=N)N
- T/C (dose: 15.0 mg/kg/injection, schedule: Q01DX005 (ip), vehicle: water): 100 % of control
- T/C (dose: 30.0 mg/kg/injection, schedule: Q01DX005 (ip), vehicle: water): 101 % of control
- T/C (dose: 60.0 mg/kg/injection, schedule: Q01DX005 (ip), vehicle: water): 96 % of control
- T/C (dose: 120.0 mg/kg/injection, schedule: Q01DX005 (ip), vehicle: water): 104 % of control

Structure (SMILES): CC1CCN(SSc2nc3ccccc3s2)CC1
- T/C [13]: 104 % of control and 116 % of control
- T/C [4]: 107 % of control and 112 % of control
- T/C [5]: 110 % of control and 118 % of control
- T/C (dose: 400.0 mg/kg/injection, schedule: Q01DX009 (ip), vehicle: saline with Tween-80): 114 % of control

Structure (SMILES): CCC1CN2CCC1CC2C(O)c1ccnc2ccc(OC)cc12 (centres undefined)
- T/C [2]: 100 % of control
- T/C [3]: 98 % of control

Structure (SMILES): COC(=O)CC1(C(=O)OC)c2sc(C(C)C)cc2N2CCCC21 (centres undefined)
- T/C (dose: 10.0 mg/kg/injection, schedule: Q01DX009 (ip), vehicle: Klucel (hydroxypropylcellulose) (HPC)): 97 % of control
- T/C (dose: 20.0 mg/kg/injection, schedule: Q01DX009 (ip), vehicle: Klucel (hydroxypropylcellulose) (HPC)): 93 % of control
- T/C (dose: 40.0 mg/kg/injection, schedule: Q01DX009 (ip), vehicle: Klucel (hydroxypropylcellulose) (HPC)): 93 % of control
- T/C (dose: 80.0 mg/kg/injection, schedule: Q01DX009 (ip), vehicle: Klucel (hydroxypropylcellulose) (HPC)): 91 % of control

Structure (SMILES): O/N=C/c1cc[n+](CCC[n+]2ccc(/C=N/O)cc2)cc1
- T/C [14]: 100 % of control
- T/C (dose: 10.0 mg/kg/injection, schedule: Q01DX009 (ip), vehicle: saline): 90 % of control
- T/C (dose: 20.0 mg/kg/injection, schedule: Q01DX009 (ip), vehicle: saline): 100 % of control

Structure (SMILES): COc1ccc(C(=O)Cc2nc3nnc(N)n3[nH]c2=O)cc1
- T/C (dose: 60.0 mg/kg/injection, schedule: Q01DX005 (ip), vehicle: saline): 99 % of control
- T/C (dose: 120.0 mg/kg/injection, schedule: Q01DX005 (ip), vehicle: saline): 104 % of control
- T/C (dose: 240.0 mg/kg/injection, schedule: Q01DX005 (ip), vehicle: saline): 103 % of control

Structure (SMILES): COc1cccc(C(=O)c2ccccc2C(=O)O)c1
- T/C [6]: 101 % of control
- T/C [7]: 105 % of control
- T/C [8]: 103 % of control

Structure (SMILES): COc1cc(C2c3cc4c(c(OC)c3C(O)C3CC(=O)OC23)OCO4)cc(OC)c1OC (centres undefined)
- T/C [9]: 115 % of control
- T/C [10]: 116 % of control

Structure (SMILES): COc1cccc2c1C(=O)c1c(O)c3c(c(O)c1C2=O)C[C@@](O)(/C(C)=N/N1CCCCC1)C[C@@H]3OC1CC(N)C(O)C(C)O1 (some centres undefined)
- T/C (dose: 1.25 mg/kg/injection, schedule: Q01DX009 (ip), vehicle: saline): 156 % of control
- T/C (dose: 2.5 mg/kg/injection, schedule: Q01DX009 (ip), vehicle: saline): 160 % of control
- T/C [14]: 101 % of control

Structure (SMILES): CCN(CC)Cc1c(C)[nH]c2c(ccc3c2ccc2c(=O)c(CN(CC)CC)c(C)[nH]c23)c1=O
- T/C [15]: 93 % of control
- T/C [16]: 91 % of control
- T/C [17]: 96 % of control

Structure (SMILES): O=C(N/N=C/c1cc(Br)ccc1[O-])c1cccnc1.O=C(N/N=C/c1cc(Br)ccc1[O-])c1cccnc1.[Zn+2]
- T/C (dose: 100.0 mg/kg/injection, schedule: Q01DX001 (ip), vehicle: Klucel (hydroxypropylcellulose) (HPC)): 98 % of control
- T/C (dose: 200.0 mg/kg/injection, schedule: Q01DX001 (ip), vehicle: Klucel (hydroxypropylcellulose) (HPC)): 93 % of control
- T/C (dose: 400.0 mg/kg/injection, schedule: Q01DX001 (ip), vehicle: Klucel (hydroxypropylcellulose) (HPC)): 93 % of control

Structure (SMILES): O=[N+]([O-])c1ccc(-c2cn(-c3ccc(Cl)cc3)cn2)cc1
- T/C [9]: 96 % of control
- T/C [10]: 88 % of control
- T/C [11]: 88 % of control

Structure (SMILES): S=C(Cl)N1CCN(C(=S)Cl)CC1
- T/C (dose: 12.5 mg/kg/injection, schedule: Q01DX009 (ip), vehicle: Klucel (hydroxypropylcellulose) (HPC)): 104 % of control
- T/C (dose: 25.0 mg/kg/injection, schedule: Q01DX009 (ip), vehicle: Klucel (hydroxypropylcellulose) (HPC)): 112 % of control
- T/C [15]: 110 % of control and 93 % of control

Structure (SMILES): COC1=CCC=C(C(C)(C)C)C1
- T/C [9]: 98 % of control
- T/C [10]: 94 % of control
- T/C [11]: 103 % of control

Structure (SMILES): COc1ccc2c(c1OC)C1=NCCc3cc4c(cc3C1(OC)C2=O)OCO4 (centres undefined)
- T/C [12]: 111 % of control
- T/C [6]: 99 % of control
- T/C [7]: 109 % of control
- T/C [8]: 98 % of control

Structure (SMILES): N#CC1CCC(c2ccccc2)(c2ccccc2)C1=O (centres undefined)
- T/C (dose: 100.0 mg/kg/injection, schedule: Q04DX003 (ip), vehicle: Klucel (hydroxypropylcellulose) (HPC)): 94 % of control
- T/C (dose: 200.0 mg/kg/injection, schedule: Q04DX003 (ip), vehicle: Klucel (hydroxypropylcellulose) (HPC)): 95 % of control

Structure (SMILES): Cc1c2ccncc2c(CN2C(=O)c3ccccc3C2=O)c2c3ccccc3n(C)c12
- T/C (dose: 12.5 mg/kg/injection, schedule: Q04DX002 (ip), vehicle: saline with Tween-80): 102 % of control
- T/C (dose: 25.0 mg/kg/injection, schedule: Q04DX002 (ip), vehicle: saline with Tween-80): 100 % of control
- T/C (dose: 50.0 mg/kg/injection, schedule: Q04DX002 (ip), vehicle: saline with Tween-80): 98 % of control
- T/C (dose: 100.0 mg/kg/injection, schedule: Q04DX002 (ip), vehicle: saline with Tween-80): 95 % of control

Structure (SMILES): COCCCNC1=C(C#N)C(=O)NC(c2cccs2)S1 (centres undefined)
- T/C [13]: 117 % of control
- T/C [4]: 119 % of control

Structure (SMILES): ClCC1OCCO1
- T/C [1]: 116 % of control
- T/C (dose: 100.0 mg/kg/injection, schedule: Q01DX009 (ip), vehicle: saline): 116 % of control

Structure (SMILES): C=C1C(=O)C23C(OC(=O)/C=C/C)C1CCC2C12COC3(O)C(O)C1C(C)(C)CCC2O (centres undefined)
- T/C (dose: 3.75 mg/kg/injection, schedule: Q01DX009 (ip), vehicle: saline with Tween-80): 103 % of control
- T/C (dose: 7.5 mg/kg/injection, schedule: Q01DX009 (ip), vehicle: saline with Tween-80): 108 % of control
- T/C (dose: 15.0 mg/kg/injection, schedule: Q01DX009 (ip), vehicle: saline with Tween-80): 112 % of control

Structure (SMILES): COC(=O)C(Cc1ccccc1)NC(=O)C(CC(C)C)NC(=O)C(CC(C)C)NC(=O)C(N)CC(C)C (centres undefined) (H-LLLF-OMe; configuration not given here)
- T/C [2]: 98 % of control
- T/C [3]: 104 % of control

Structure (SMILES): C=CCSc1nc2ccc(N3C(=O)C4C5C=CC(C5)C4C3=O)cc2s1 (centres undefined)
- T/C [15]: 87 % of control
- T/C [16]: 92 % of control
- T/C [17]: 93 % of control
